Experiment: Metabolic stability in human liver microsomes assessed as parent compound remaining at 1 uM preincubated for 5 mins followed by NADPH regeneration system addition and measured after 30 mins by LC-MS analysis
Assay type: ADME, Microsome
Conditions: time 35 min, read-out: Stabilty

remaining at 0.5 h, 1 µM: 27.5%
SMILES: Clc1cccc(-c2n[nH]cc2N2CCCNCC2)c1

Reference: ChEMBL document CHEMBL4825758, “Discovery of G Protein-Biased Antagonists against 5-HT7R” (J Med Chem, 2021)
